Source: patent US8729017B2 (priority 2011, dated 2014)
Read-outs that look alike come from different tables or passages of the source. Numbered stars: 1 amine (or outer) side, 2 acyl side, 3 side chain; on linkers, the order of the positions; unused ones are H or OH. Square brackets hold non-standard residues; d marks the D form. Side chains are listed from the residue outwards. Peptide text beside a SMILES is read from it. * marks the point of attachment. γGlu = O=C(O)[C@H](CCC(=O)[*:2])N[*:1]; Palmitoyl = CCCCCCCCCCCCCCCC(=O)*; Orn = NCCC[C@H](N)C(=O)O; Aib = CC(C)(N)C(=O)O

Experiments:
Format in all cases: cell-based
GLP-1 receptor = target: T1, GLP-1 receptor (Homo sapiens, UniProt P43220); assay: cAMP induction, firefly luciferase reporter assay in HEK293 cells co-transfected with the GLP-1 receptor
T1 construct: expressed in transfected cells; host or cells: HEK293
Experimental: (§1) The ability of each peptide to induce cAMP was measured in a firefly luciferase-based reporter assay. […] At the end of the incubation, 100 μL of LucLite luminescence substrate reagent (Perkin Elmer, Wellesley, Mass.) were added to each well. […] In some instances, the in vitro agonist activity at the GIP receptor was also tested.

GIP receptor = target: T2, GIP receptor (Homo sapiens, UniProt P48546); assay: in vitro agonist activity at the GIP receptor (cAMP luciferase reporter, HEK293 cells)
T2 construct: expressed in transfected cells; host or cells: HEK293
T2 sequence (P48546 22-466): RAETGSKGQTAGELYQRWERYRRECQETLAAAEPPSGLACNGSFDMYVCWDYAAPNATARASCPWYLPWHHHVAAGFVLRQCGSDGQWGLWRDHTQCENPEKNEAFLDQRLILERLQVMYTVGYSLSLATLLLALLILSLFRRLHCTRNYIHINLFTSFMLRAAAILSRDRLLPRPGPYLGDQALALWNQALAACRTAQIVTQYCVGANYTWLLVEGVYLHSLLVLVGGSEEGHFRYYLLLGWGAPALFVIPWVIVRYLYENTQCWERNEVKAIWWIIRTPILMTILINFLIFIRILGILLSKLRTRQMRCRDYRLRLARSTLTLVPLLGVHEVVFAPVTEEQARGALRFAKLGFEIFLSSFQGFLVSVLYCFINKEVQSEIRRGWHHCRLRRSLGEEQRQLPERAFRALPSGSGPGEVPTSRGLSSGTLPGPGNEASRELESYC
Experimental: as §1, with “It is understood that a lower EC50 indicates higher activity or potency at the receptor. […] The” for “The”

glucagon receptor = target: T3, glucagon receptor (Homo sapiens, UniProt P47871); assay: cAMP induction, firefly luciferase reporter assay in HEK293 cells co-transfected with the glucagon receptor
T3 construct: expressed in transfected cells; host or cells: HEK293
Experimental: as §1

[1] = HEK293 cells, cAMP-responsive luciferase reporter, 5 hours incubation
[2] = in vitro agonist activity, read-out: EC50 (nM) at GIP receptor

T1 sequence (P43220 24-463): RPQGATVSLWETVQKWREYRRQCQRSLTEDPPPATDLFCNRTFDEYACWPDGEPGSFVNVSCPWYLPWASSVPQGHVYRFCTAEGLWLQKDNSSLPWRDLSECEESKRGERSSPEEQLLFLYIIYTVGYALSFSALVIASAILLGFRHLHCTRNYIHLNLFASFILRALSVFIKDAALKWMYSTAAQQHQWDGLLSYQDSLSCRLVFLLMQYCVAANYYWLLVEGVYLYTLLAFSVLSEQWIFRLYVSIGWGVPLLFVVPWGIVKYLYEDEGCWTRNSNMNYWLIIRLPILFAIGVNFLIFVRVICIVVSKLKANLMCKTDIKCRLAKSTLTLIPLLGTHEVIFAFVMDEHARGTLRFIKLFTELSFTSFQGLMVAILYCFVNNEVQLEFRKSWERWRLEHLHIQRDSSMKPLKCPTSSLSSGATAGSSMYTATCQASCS
T3 sequence (P47871 26-477, species assumed): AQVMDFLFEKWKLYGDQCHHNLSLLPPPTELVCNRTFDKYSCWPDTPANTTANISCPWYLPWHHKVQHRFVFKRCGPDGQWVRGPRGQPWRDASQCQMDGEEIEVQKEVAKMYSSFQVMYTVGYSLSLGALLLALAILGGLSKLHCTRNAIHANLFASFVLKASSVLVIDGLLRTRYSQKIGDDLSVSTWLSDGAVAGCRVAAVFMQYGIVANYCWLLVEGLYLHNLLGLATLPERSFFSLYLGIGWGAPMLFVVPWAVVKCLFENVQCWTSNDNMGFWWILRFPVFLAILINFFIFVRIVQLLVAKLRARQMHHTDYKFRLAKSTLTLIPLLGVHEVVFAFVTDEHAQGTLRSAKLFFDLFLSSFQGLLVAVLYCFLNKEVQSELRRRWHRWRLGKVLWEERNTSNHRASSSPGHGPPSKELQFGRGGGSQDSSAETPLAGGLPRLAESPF

SMILES	EC50 (GLP-1 receptor) [nM]	EC50 (GIP receptor) [nM]	EC50 (glucagon receptor) [nM]	EC50 (GLP-1 receptor; [1]) [nM]	EC50 (GIP receptor; [2]) [nM]	EC50 (glucagon receptor; [1]) [nM]
CCCCCCCCCCCCCCCC(=O)N[C@@H](CCC(=O)NCCCC[C@H](NC(=O)[C@H](CC(=O)O)NC(=O)[C@H](CO)NC(=O)[C@@H](NC(=O)[C@H](Cc1ccccc1)NC(=O)[C@@H](NC(=O)CNC(=O)[C@H](CCC(N)=O)NC(=O)[C@@H](C)NC(=O)[C@@H](N)Cc1cnc[nH]1)[C@@H](C)O)[C@@H](C)O)C(=O)N[C@@H](CO)C(=O)N[C@@H](CCCCN)C(=O)N[C@@H](Cc1ccc(O)cc1)C(=O)N[C@@H](CC(C)C)C(=O)N[C@@H](CC(=O)O)C(=O)N[C@@H](CCC(=O)O)C(=O)N[C@@H](CCCNC(=N)N)C(=O)N[C@@H](C)C(=O)N[C@@H](C)C(=O)N[C@@H](CCC(N)=O)C(=O)N[C@@H](CC(=O)O)C(=O)N[C@@H](Cc1ccccc1)C(=O)N[C@H](C(=O)N[C@@H](CCC(N)=O)C(=O)N[C@@H](Cc1c[nH]c2ccccc12)C(=O)N[C@@H](CC(C)C)C(=O)N[C@@H](CC(C)C)C(=O)N[C@@H](CC(=O)O)C(=O)N[C@H](C(N)=O)[C@@H](C)O)C(C)C)C(=O)O [compound 56]	0.02	1.64	0.006	–	–	–
CCCCCCCCCCCCCCCC(=O)N[C@@H](CCC(=O)N[C@@H](CCC(=O)NCCCC[C@H](NC(=O)[C@H](CC(=O)O)NC(=O)[C@H](CO)NC(=O)[C@@H](NC(=O)[C@H](Cc1ccccc1)NC(=O)[C@@H](NC(=O)CNC(=O)[C@H](CCC(N)=O)NC(=O)C(C)(C)NC(=O)[C@@H](N)Cc1c[nH]cn1)[C@@H](C)O)[C@@H](C)O)C(=O)N[C@@H](CO)C(=O)N[C@@H](CCCCN)C(=O)N[C@@H](Cc1ccc(O)cc1)C(=O)N[C@@H](CC(C)C)C(=O)N[C@@H](CC(=O)O)C(=O)NC(C)(C)C(=O)N[C@@H](CCCNC(=N)N)C(=O)N[C@@H](C)C(=O)N[C@@H](C)C(=O)N[C@@H](CCC(N)=O)C(=O)N[C@@H](CC(=O)O)C(=O)N[C@@H](Cc1ccccc1)C(=O)N[C@H](C(=O)N[C@@H](CCC(N)=O)C(=O)N[C@@H](Cc1c[nH]c2ccccc12)C(=O)N[C@@H](CC(C)C)C(=O)N[C@@H](CCSC)C(=O)N[C@@H](CCCN)C(=O)N[C@H](C(=O)N[C@@H](CCCN)C(=O)N[C@@H](CCC(=O)O)C(=O)O)[C@@H](C)O)C(C)C)C(=O)O)C(=O)O [compound 33] (H-H[Aib]QGTFTSDK([γGlu-γGlu-Palmitoyl])SKYLD[Aib]RAAQDFVQWLM[Orn]T[Orn]E-OH; N-terminus assumed)	–	–	–	0.019	3.96	0.023
CCCCCCCCCCCCCCCC(=O)N[C@@H](CCC(=O)N[C@@H](CCC(=O)NCCCC[C@H](NC(=O)[C@H](CC(=O)O)NC(=O)[C@H](CO)NC(=O)[C@@H](NC(=O)[C@H](Cc1ccccc1)NC(=O)[C@@H](NC(=O)CNC(=O)[C@H](CCC(N)=O)NC(=O)C(C)(C)NC(=O)[C@@H](N)Cc1c[nH]cn1)[C@@H](C)O)[C@@H](C)O)C(=O)N[C@@H](CO)C(=O)N[C@@H](CCCCN)C(=O)N[C@@H](Cc1ccc(O)cc1)C(=O)N[C@@H](CC(C)C)C(=O)N[C@@H](CC(=O)O)C(=O)NC(C)(C)C(=O)N[C@@H](CCCNC(=N)N)C(=O)N[C@@H](C)C(=O)N[C@@H](C)C(=O)N[C@@H](CCC(N)=O)C(=O)N[C@@H](CC(=O)O)C(=O)N[C@@H](Cc1ccccc1)C(=O)N[C@H](C(=O)N[C@@H](CCC(N)=O)C(=O)N[C@@H](Cc1c[nH]c2ccccc12)C(=O)N[C@@H](CC(C)C)C(=O)N[C@@H](CCCCN)C(=O)N[C@@H](CC(=O)O)C(=O)NCC(=O)N[C@@H](CCCNC(=N)N)C(=O)NCC(N)=O)C(C)C)C(=O)O)C(=O)O [compound 24] (H-H[Aib]QGTFTSDK([γGlu-γGlu-Palmitoyl])SKYLD[Aib]RAAQDFVQWLKDGRG-NH2; N-terminus assumed)	–	–	–	0.004	1.46	0.021
CCCCCCCCCCCCCCCC(=O)N[C@@H](CCC(=O)NCCCC[C@H](NC(=O)[C@H](CC(=O)O)NC(=O)[C@H](CO)NC(=O)[C@@H](NC(=O)[C@H](Cc1ccccc1)NC(=O)[C@@H](NC(=O)CNC(=O)[C@H](CCC(N)=O)NC(=O)C(C)(C)NC(=O)[C@@H](N)Cc1c[nH]cn1)[C@@H](C)O)[C@@H](C)O)C(=O)N[C@@H](CO)C(=O)N[C@@H](CCCCN)C(=O)N[C@@H](Cc1ccc(O)cc1)C(=O)N[C@@H](CC(C)C)C(=O)N[C@@H](CC(=O)O)C(=O)NC(C)(C)C(=O)N[C@@H](CCCNC(=N)N)C(=O)N[C@@H](C)C(=O)N[C@@H](C)C(=O)N[C@@H](CCC(N)=O)C(=O)N[C@@H](CC(=O)O)C(=O)N[C@@H](Cc1ccccc1)C(=O)N[C@H](C(=O)N[C@@H](CCC(N)=O)C(=O)N[C@@H](Cc1c[nH]c2ccccc12)C(=O)N[C@@H](CC(C)C)C(=O)N[C@@H](CCSC)C(=O)N[C@@H](CCCCN)C(=O)N[C@H](C(=O)N[C@@H](CCCCN)C(=O)N[C@H](CCC(=O)O)C(=O)O)[C@@H](C)O)C(C)C)C(=O)O [compound 60] (H-H[Aib]QGTFTSDK([γGlu-Palmitoyl])SKYLD[Aib]RAAQDFVQWLMKTK[dE]-OH; N-terminus assumed)	–	–	–	0.033	147	4.6
CCCCCCCCCCCCCCCC(=O)N[C@@H](CCC(=O)N[C@@H](CCC(=O)NCCCC[C@H](NC(=O)[C@H](CC(=O)O)NC(=O)[C@H](CO)NC(=O)[C@@H](NC(=O)[C@H](Cc1ccccc1)NC(=O)[C@@H](NC(=O)CNC(=O)[C@H](CCC(N)=O)NC(=O)C(C)(C)NC(=O)[C@@H](N)Cc1c[nH]cn1)[C@@H](C)O)[C@@H](C)O)C(=O)N[C@@H](CO)C(=O)N[C@@H](CCCCN)C(=O)N[C@@H](Cc1ccc(O)cc1)C(=O)N[C@@H](CC(C)C)C(=O)N[C@@H](CC(=O)O)C(=O)N[C@@H](CCC(=O)O)C(=O)N[C@@H](CCCNC(=N)N)C(=O)N[C@@H](C)C(=O)N[C@@H](C)C(=O)N[C@@H](CCC(N)=O)C(=O)N[C@@H](CC(=O)O)C(=O)N[C@@H](Cc1ccccc1)C(=O)N[C@H](C(=O)N[C@@H](CCC(N)=O)C(=O)N[C@@H](Cc1c[nH]c2ccccc12)C(=O)N[C@@H](CC(C)C)C(=O)N[C@@H](CCSC)C(=O)N[C@@H](CC(=O)O)C(=O)N[C@H](C(N)=O)[C@@H](C)O)C(C)C)C(=O)O)C(=O)O [compound 61]	–	–	–	0.004	0.676	0.009
CCCCCCCCCCCCCCCC(=O)N[C@@H](CCC(=O)N[C@@H](CCC(=O)NCCCC[C@H](NC(=O)[C@H](CC(=O)O)NC(=O)[C@H](CO)NC(=O)[C@@H](NC(=O)[C@H](Cc1ccccc1)NC(=O)[C@@H](NC(=O)CNC(=O)[C@H](CCC(N)=O)NC(=O)C(C)(C)NC(=O)[C@@H](N)Cc1c[nH]cn1)[C@@H](C)O)[C@@H](C)O)C(=O)N[C@@H](CO)C(=O)N[C@@H](CCCCN)C(=O)N[C@@H](Cc1ccc(O)cc1)C(=O)N[C@@H](CC(C)C)C(=O)N[C@@H](CC(=O)O)C(=O)NC(C)(C)C(=O)N[C@@H](CCCNC(=N)N)C(=O)N[C@@H](C)C(=O)N[C@@H](C)C(=O)N[C@@H](CCC(N)=O)C(=O)N[C@@H](CC(=O)O)C(=O)N[C@@H](Cc1ccccc1)C(=O)N[C@H](C(=O)N[C@@H](CCC(N)=O)C(=O)N[C@@H](Cc1c[nH]c2ccccc12)C(=O)N[C@@H](CC(C)C)C(=O)N[C@@H](CCCCN)C(=O)N[C@@H](CC(=O)O)C(=O)NCC(=O)N[C@@H](CCCNC(=N)N)C(=O)N1CCC[C@H]1C(N)=O)C(C)C)C(=O)O)C(=O)O [compound 25] (H-H[Aib]QGTFTSDK([γGlu-γGlu-Palmitoyl])SKYLD[Aib]RAAQDFVQWLKDGRP-NH2)	–	–	–	0.003	2.36	0.035
CCCCCCCCCCCCCCCC(=O)N[C@@H](CCC(=O)NCCCC[C@H](NC(=O)[C@H](CC(=O)O)NC(=O)[C@H](CO)NC(=O)[C@@H](NC(=O)[C@H](Cc1ccccc1)NC(=O)[C@@H](NC(=O)CNC(=O)[C@H](CCC(N)=O)NC(=O)[C@@H](CO)NC(=O)CCc1c[nH]cn1)[C@@H](C)O)[C@@H](C)O)C(=O)N[C@@H](CO)C(=O)N[C@@H](CCCCN)C(=O)N[C@@H](Cc1ccc(O)cc1)C(=O)N[C@@H](CC(C)C)C(=O)N[C@@H](CC(=O)O)C(=O)N[C@@H](CCC(=O)O)C(=O)N[C@@H](CCCNC(=N)N)C(=O)N[C@@H](C)C(=O)N[C@@H](C)C(=O)N[C@@H](CCC(N)=O)C(=O)N[C@@H](CC(=O)O)C(=O)N[C@@H](Cc1ccccc1)C(=O)N[C@H](C(=O)N[C@@H](CCC(N)=O)C(=O)N[C@@H](Cc1c[nH]c2ccccc12)C(=O)N[C@@H](CC(C)C)C(=O)N[C@@H](CC(C)C)C(=O)N[C@@H](CC(=O)O)C(=O)N[C@H](C(N)=O)[C@@H](C)O)C(C)C)C(=O)O [compound 20]	–	–	–	0.004	1.38	0.006
